Where two headings read alike, the source gives them in different places.
Key:
Assay type in all cases: cell-based
[1] = biological target: T1, Y5R (Homo sapiens, UniProt Q15761); experiment: CaFlux Assay (FLIPR), Y5R; conditions: for Emax: read-out: Y5R FLIPR, percentage in parentheses under the EC50;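 for Emax: percent of the maximal response of the positive control agonist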
T1 sequence (Q15761 1-445): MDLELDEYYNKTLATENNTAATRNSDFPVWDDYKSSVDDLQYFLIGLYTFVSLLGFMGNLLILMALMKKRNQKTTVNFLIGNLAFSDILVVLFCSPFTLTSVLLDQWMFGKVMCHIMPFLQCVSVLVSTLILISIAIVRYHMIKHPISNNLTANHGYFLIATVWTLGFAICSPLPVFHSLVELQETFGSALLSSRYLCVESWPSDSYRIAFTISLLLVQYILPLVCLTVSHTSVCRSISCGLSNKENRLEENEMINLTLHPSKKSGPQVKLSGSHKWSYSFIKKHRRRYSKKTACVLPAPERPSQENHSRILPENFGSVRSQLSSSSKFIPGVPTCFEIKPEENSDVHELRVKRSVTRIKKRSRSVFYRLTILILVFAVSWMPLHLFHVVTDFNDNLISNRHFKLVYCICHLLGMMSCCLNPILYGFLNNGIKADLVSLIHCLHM

[2] = biological target: T2, Y1R (Homo sapiens, UniProt P25929); experiment: CaFlux Assay (FLIPR), Y1R
T2 sequence (P25929 1-384): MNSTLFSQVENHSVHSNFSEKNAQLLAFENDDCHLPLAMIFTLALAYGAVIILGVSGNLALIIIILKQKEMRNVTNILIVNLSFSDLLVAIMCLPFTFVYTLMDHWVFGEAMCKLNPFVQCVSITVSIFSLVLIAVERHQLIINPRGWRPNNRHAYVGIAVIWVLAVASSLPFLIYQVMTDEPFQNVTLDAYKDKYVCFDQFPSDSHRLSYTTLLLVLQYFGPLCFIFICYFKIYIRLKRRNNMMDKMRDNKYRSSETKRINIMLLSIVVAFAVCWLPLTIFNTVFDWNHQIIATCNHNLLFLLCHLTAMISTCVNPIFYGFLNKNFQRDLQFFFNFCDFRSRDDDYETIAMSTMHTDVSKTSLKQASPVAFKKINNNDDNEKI

[3] = biological target: T3, hNPY2R (Homo sapiens, UniProt P49146); experiment: cAMP Agonist Assay, HEK293/hNPY2R cells; set-up: expressed in transfected cells; host or cells: HEK293/hNPY2R (G418 selection)
T3 sequence (P49146 1-381): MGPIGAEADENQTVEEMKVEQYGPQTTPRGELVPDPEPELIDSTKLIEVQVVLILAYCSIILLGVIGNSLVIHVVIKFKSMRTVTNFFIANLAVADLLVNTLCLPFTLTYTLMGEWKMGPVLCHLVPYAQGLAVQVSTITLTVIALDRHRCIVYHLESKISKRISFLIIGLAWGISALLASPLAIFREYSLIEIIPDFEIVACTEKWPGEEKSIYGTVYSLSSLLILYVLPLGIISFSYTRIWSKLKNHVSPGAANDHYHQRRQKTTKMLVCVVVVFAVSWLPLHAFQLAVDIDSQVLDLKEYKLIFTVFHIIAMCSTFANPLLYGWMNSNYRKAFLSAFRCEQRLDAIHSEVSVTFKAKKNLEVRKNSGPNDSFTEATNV

[4] = biological target: Y4R (Homo sapiens, UniProt P50391); experiment: CaFlux Assay (FLIPR), Y4R
Y4R, sequence (P50391 whole entry): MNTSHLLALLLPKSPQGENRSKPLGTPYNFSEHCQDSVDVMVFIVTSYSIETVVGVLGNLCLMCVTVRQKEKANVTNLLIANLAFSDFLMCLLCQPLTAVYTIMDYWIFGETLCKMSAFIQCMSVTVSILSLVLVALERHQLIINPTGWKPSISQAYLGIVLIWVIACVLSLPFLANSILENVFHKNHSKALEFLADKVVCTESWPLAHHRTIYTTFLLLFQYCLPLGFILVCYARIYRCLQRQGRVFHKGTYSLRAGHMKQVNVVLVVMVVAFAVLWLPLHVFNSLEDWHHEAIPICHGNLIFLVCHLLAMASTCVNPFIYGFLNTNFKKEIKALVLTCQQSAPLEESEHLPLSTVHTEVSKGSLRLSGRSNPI

[5] = biological target: T3, hNPY2R; experiment: CaFlux Assay (FLIPR), Y2R; set-up: expressed in transfected cells; host or cells: HEK-293 stably expressing G protein chimera Gaqi9
Protocol: Hek-293 cells were stably transfected with the G protein chimera Gaqi9 and the hygromycin-B resistance gene were further transfected with the human NPY2 receptor and G418 antibiotic selection. Following selection in both hygromycin-B and G418, individual clones were assayed for their response to PYY. The transfected cells were cultured in DMEM medium supplemented with 10% fetal bovine serum, 50 μg/mL hygromycin-B 2 mM glutamine, 100 U/mL penicillin, 100 μg/mL streptomycin and 250 μg/mL G418. Cells are harvested with trypsin-EDTA and counted using ViaCount reagent. The cell suspension volume is adjusted to 4.8×10^5 cells/mL with complete growth media. Aliquots of 25 μL are dispensed into 384 well Poly-D Lysine coated black/clear microplates (Falcon) and the microplates were placed in a 37° C. CO2 incubator overnight. Loading Buffer (Calcium-3 Assay Kit, Molecular Devices) was prepared by dissolving the contents of one vial (Express Kit) into 1000 mL Hank's Balanced Salt Solution containing 20 mM HEPES and 5 mM probenecid. Aliquots of 25 μL of diluted dye were dispensed into the cell plates and the plates are then incubated for 1 hour at 37° C. During the incubation, test compounds were prepared at 3.5× the desired concentration in HBSS (20 mM HEPES)/0.05% BSA/1% DMSO and transferred to a 384 well plate for use on FLIPR. After incubation, both the cell and compound plates were brought to the FLIPR and 20 μL of the diluted compounds were transferred to the cell plates by the FLIPR. During the assay, fluorescence readings were taken simultaneously from all 384 wells of the cell plate every 1.5 seconds. Five readings were taken to establish a stable baseline, and then 20 μL of sample was rapidly (30 μL/sec) and simultaneously added to each well of the cell plate. The fluorescence was continuously monitored before, during and after sample addition for a total elapsed time of 100 seconds. Responses (increase in peak fluorescence) in each well following addition were determined. The initial fluorescence reading from each well, prior to ligand stimulation, was used as a zero baseline value for the data from that well. The responses are expressed as % of maximal response of the positive control.

Structure (SMILES)	EC50 [1] [nM]	EC50 [2] [nM]	EC50 [3] [nM]	EC50 [4] [nM]	EC50 [5] [nM]	EC50 ([1]; FLIPR, read-out: Y5R EC50 (nM) FLIPR) [nM]	Emax [1] [%]	EC50 ([2]; FLIPR, read-out: Y1R EC50 (nM) FLIPR) [nM]	EC50 ([3]; HEK293/hNPY2R, Forskolin 5 μM, read-out: Y2R EC50 (nM) cAMP) [nM]	EC50 ([4]; FLIPR, read-out: Y4R EC50 (nM) FLIPR) [nM]	EC50 ([5]; FLIPR calcium flux, Hek-293 cells with Gaqi9 and human NPY2 receptor, read-out: Y2R EC50 (nM) FLIRR) [nM]
CCCCCCCCCCCCCCCC(=O)NCCCCCC(=O)N[C@H](C(=O)N[C@@H](CCCCN)C(=O)N1CCN(c2ccc3ncn(CC(=O)N[C@@H](CCCNC(=N)N)C(=O)N[C@@H](Cc4c[nH]cn4)C(=O)N[C@@H](Cc4ccc(O)cc4)C(=O)N[C@@H](CC(C)C)C(=O)N[C@@H](CC(N)=O)C(=O)N[C@@H](Cc4c[nH]c5ccccc45)C(=O)N[C@H](C(=O)N[C@H](C(=O)N[C@@H](CCCNC(=N)N)C(=O)N[C@@H](CCC(N)=O)C(=O)N(C)[C@@H](CCCNC(=N)N)C(=O)N[C@@H](Cc4ccc(O)cc4)C(N)=O)[C@@H](C)O)C(C)C)c(=O)c3c2)CC1)[C@@H](C)CC [Example 16]	544	> 5000	0.23	13700	0.18	–	–	–	–	–	–
CCCCCCCCCCCCCCCC(=O)NCCCCCC(=O)N[C@H](C(=O)N[C@@H](CCCCN)C(=O)N1CCN(c2ccc3ncn(CC(=O)N[C@@H](CCCNC(=N)N)C(=O)N[C@@H](Cc4c[nH]cn4)C(=O)N[C@@H](Cc4ccc(O)cc4)C(=O)N[C@@H](CC(C)C)C(=O)N[C@@H](CC(N)=O)C(=O)N[C@@H](Cc4c[nH]c5ccccc45)C(=O)N[C@H](C(=O)N[C@H](C(=O)N[C@@H](CCCNC(=N)N)C(=O)N[C@@H](CCC(N)=O)C(=O)N[C@@H](CCCNC(=N)N)C(=O)N[C@@H](Cc4ccc(O)cc4)C(N)=O)[C@@H](C)O)C(C)C)c(=O)c3c2)CC1)[C@@H](C)CC [Example 17]	27	> 5000	0.25	14500	0.09	–	–	–	–	–	–
CCCCCCCCCCCCCCCC(=O)NCCCCCC(=O)NCCCC[C@H](NC(=O)[C@@H](N)[C@@H](C)CC)C(=O)N1CCN(c2ccc3ncn(CC(=O)N[C@@H](CCCNC(=N)N)C(=O)N[C@@H](Cc4c[nH]cn4)C(=O)N[C@@H](Cc4ccc(O)cc4)C(=O)N[C@@H](CC(C)C)C(=O)N[C@@H](CC(N)=O)C(=O)N[C@@H](Cc4c[nH]c5ccccc45)C(=O)N[C@H](C(=O)N[C@H](C(=O)N[C@@H](CCCNC(=N)N)C(=O)N[C@@H](CCC(N)=O)C(=O)N(C)[C@@H](CCCNC(=N)N)C(=O)N[C@@H](Cc4ccc(O)cc4)C(N)=O)[C@@H](C)O)C(C)C)c(=O)c3c2)CC1 [Example 18]	1190	> 5000	0.18	> 5000	0.012	–	–	–	–	–	–
CCCCCCCCCCCCCCCC(=O)NCCCCCC(=O)NCCCC[C@H](NC(=O)[C@@H](N)[C@@H](C)CC)C(=O)N1CCN(c2ccc3ncn(CC(=O)N[C@@H](CCCNC(=N)N)C(=O)N[C@@H](Cc4c[nH]cn4)C(=O)N[C@@H](Cc4ccc(O)cc4)C(=O)N[C@@H](CC(C)C)C(=O)N[C@@H](CC(N)=O)C(=O)N[C@@H](Cc4c[nH]c5ccccc45)C(=O)N[C@H](C(=O)N[C@H](C(=O)N[C@@H](CCCNC(=N)N)C(=O)N[C@@H](CCC(N)=O)C(=O)N[C@@H](CCCNC(=N)N)C(=O)N[C@@H](Cc4ccc(O)cc4)C(N)=O)[C@@H](C)O)C(C)C)c(=O)c3c2)CC1 [Example 19]	45	> 5000	0.15	> 5000	0.004	–	–	–	–	–	–
CCCCCCCCCCCCCCCC(=O)NCCC(=O)NCCCC[C@H](NC(=O)[C@@H](N)[C@@H](C)CC)C(=O)N1CCN(c2ccc3ncn(CC(=O)N[C@@H](CCCNC(=N)N)C(=O)N[C@@H](Cc4c[nH]cn4)C(=O)N[C@@H](Cc4ccc(O)cc4)C(=O)N[C@@H](CC(C)C)C(=O)N[C@@H](CC(N)=O)C(=O)N[C@@H](Cc4c[nH]c5ccccc45)C(=O)N[C@H](C(=O)N[C@H](C(=O)N[C@@H](CCCNC(=N)N)C(=O)N[C@@H](CCC(N)=O)C(=O)N(C)[C@@H](CCCNC(=N)N)C(=O)N[C@@H](Cc4ccc(O)cc4)C(N)=O)[C@@H](C)O)C(C)C)c(=O)c3c2)CC1 [Example 20]	1880	> 5000	0.26	> 5000	0.015	–	–	–	–	–	–
CCCCCCCCCCCCCCCC(=O)N[C@@H](CCC(=O)O)C(=O)NCCCC[C@H](NC(=O)[C@@H](N)[C@@H](C)CC)C(=O)N1CCN(c2ccc3ncn(CC(=O)N[C@@H](CCCNC(=N)N)C(=O)N[C@@H](Cc4c[nH]cn4)C(=O)N[C@@H](Cc4ccc(O)cc4)C(=O)N[C@@H](CC(C)C)C(=O)N[C@@H](CC(N)=O)C(=O)N[C@@H](Cc4c[nH]c5ccccc45)C(=O)N[C@H](C(=O)N[C@H](C(=O)N[C@@H](CCCNC(=N)N)C(=O)N[C@@H](CCC(N)=O)C(=O)N(C)[C@@H](CCCNC(=N)N)C(=O)N[C@@H](Cc4ccc(O)cc4)C(N)=O)[C@@H](C)O)C(C)C)c(=O)c3c2)CC1 [Example 21]	4180	> 5000	1	> 5000	0.43	–	–	–	–	–	–
CCCCCCCCCCCCCCCC(=O)N[C@@H](CCC(=O)O)C(=O)N[C@@H](CCC(=O)O)C(=O)NCCCC[C@H](NC(=O)[C@@H](N)[C@@H](C)CC)C(=O)N1CCN(c2ccc3ncn(CC(=O)N[C@@H](CCCNC(=N)N)C(=O)N[C@@H](Cc4c[nH]cn4)C(=O)N[C@@H](Cc4ccc(O)cc4)C(=O)N[C@@H](CC(C)C)C(=O)N[C@@H](CC(N)=O)C(=O)N[C@@H](Cc4c[nH]c5ccccc45)C(=O)N[C@H](C(=O)N[C@H](C(=O)N[C@@H](CCCNC(=N)N)C(=O)N[C@@H](CCC(N)=O)C(=O)N(C)[C@@H](CCCNC(=N)N)C(=O)N[C@@H](Cc4ccc(O)cc4)C(N)=O)[C@@H](C)O)C(C)C)c(=O)c3c2)CC1 [Example 23]	–	–	–	–	–	459	70	> 5000	0.29	> 5000	0.033
CCCCCCCCCCCCCCCC(=O)N[C@@H](CCC(=O)NCCCC[C@H](NC(=O)[C@@H](N)[C@@H](C)CC)C(=O)N1CCN(c2ccc3ncn(CC(=O)N[C@@H](CCCNC(=N)N)C(=O)N[C@@H](Cc4c[nH]cn4)C(=O)N[C@@H](Cc4ccc(O)cc4)C(=O)N[C@@H](CC(C)C)C(=O)N[C@@H](CC(N)=O)C(=O)N[C@@H](Cc4c[nH]c5ccccc45)C(=O)N[C@H](C(=O)N[C@H](C(=O)N[C@@H](CCCNC(=N)N)C(=O)N[C@@H](CCC(N)=O)C(=O)N(C)[C@@H](CCCNC(=N)N)C(=O)N[C@@H](Cc4ccc(O)cc4)C(N)=O)[C@@H](C)O)C(C)C)c(=O)c3c2)CC1)C(=O)O [Example 24]	168	> 5000	0.21	> 5000	0.039	–	70	–	–	–	–
CCCCCCCCCCCCCCCC(=O)N[C@@H](CCC(=O)N[C@@H](CCC(=O)NCCCC[C@H](NC(=O)[C@@H](N)[C@@H](C)CC)C(=O)N1CCN(c2ccc3ncn(CC(=O)N[C@@H](CCCNC(=N)N)C(=O)N[C@@H](Cc4c[nH]cn4)C(=O)N[C@@H](Cc4ccc(O)cc4)C(=O)N[C@@H](CC(C)C)C(=O)N[C@@H](CC(N)=O)C(=O)N[C@@H](Cc4c[nH]c5ccccc45)C(=O)N[C@H](C(=O)N[C@H](C(=O)N[C@@H](CCCNC(=N)N)C(=O)N[C@@H](CCC(N)=O)C(=O)N(C)[C@@H](CCCNC(=N)N)C(=O)N[C@@H](Cc4ccc(O)cc4)C(N)=O)[C@@H](C)O)C(C)C)c(=O)c3c2)CC1)C(=O)O)C(=O)O [Example 25]	443	> 5000	0.22	> 5000	0.08	–	70	–	–	–	–

— patent publication US20100179093A1, “Neoropeptide-2-Receptor (Y-2R) Agonists” (priority 2008, published 2010)
